Measured values from patent publication US11220504B2, “Pyrrolo[3,2-d] pyrimidine derivatives for the treatment of viral infections and other diseases” (JANSSEN SCIENCES IRELAND UNLIMITED COMPANY, priority 2012, dated 2022).

How the values were obtained:
[1] = target: T1, human TLR8 (Homo sapiens, UniProt Q9NR97); assay: TLR8 cellular reporter assay (HEK293, NFκB-luc); type: cell-based; conditions: HEK293 cells transfected with CMV-TLR8 and NFκB-luc, 6 hours incubation; lowest effective concentration
T1 construct: expressed in transfected cells; host or cells: HEK293 cells, transient transfection with TLR8 plasmid and NFκB-luc plasmid
T1 sequence (Q9NR97 27-1041): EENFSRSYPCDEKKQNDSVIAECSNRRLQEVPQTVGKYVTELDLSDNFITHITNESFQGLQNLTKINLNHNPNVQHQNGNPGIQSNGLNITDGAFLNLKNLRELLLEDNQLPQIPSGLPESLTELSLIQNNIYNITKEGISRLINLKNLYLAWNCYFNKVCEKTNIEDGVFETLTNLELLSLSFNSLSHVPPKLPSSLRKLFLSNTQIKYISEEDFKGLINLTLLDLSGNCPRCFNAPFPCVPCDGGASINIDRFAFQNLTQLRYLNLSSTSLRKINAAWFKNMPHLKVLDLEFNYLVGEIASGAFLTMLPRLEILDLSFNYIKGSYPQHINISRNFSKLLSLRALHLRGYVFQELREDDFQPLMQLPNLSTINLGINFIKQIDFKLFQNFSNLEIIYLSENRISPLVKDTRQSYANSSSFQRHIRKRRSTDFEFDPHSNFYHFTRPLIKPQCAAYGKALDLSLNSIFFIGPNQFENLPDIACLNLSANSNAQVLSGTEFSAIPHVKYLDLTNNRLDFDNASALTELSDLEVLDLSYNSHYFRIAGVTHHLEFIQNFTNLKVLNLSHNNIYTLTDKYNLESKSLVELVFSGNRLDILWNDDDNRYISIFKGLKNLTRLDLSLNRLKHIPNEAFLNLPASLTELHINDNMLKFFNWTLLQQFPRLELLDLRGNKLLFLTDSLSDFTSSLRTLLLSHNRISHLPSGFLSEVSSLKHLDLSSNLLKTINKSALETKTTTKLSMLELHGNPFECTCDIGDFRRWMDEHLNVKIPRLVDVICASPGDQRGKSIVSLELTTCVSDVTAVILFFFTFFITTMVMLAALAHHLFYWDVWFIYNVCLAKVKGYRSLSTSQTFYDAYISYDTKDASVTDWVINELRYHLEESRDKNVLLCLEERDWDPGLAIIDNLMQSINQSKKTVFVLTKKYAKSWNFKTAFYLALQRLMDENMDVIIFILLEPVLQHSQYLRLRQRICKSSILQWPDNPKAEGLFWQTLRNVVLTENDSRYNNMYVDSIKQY
Description: (§1) The ability of compounds to activate human TLR7 and/or TLR8 was assessed in a cellular reporter assay using HEK293 cells transiently transfected with a TLR7 or TLR8 expression vector and NFκB-luc reporter construct.
(§2) Briefly, HEK293 cells were grown in culture medium (DMEM supplemented with 10% FCS and 2 mM Glutamine). […] Thirty microliters of cells were then dispensed into each well in 384-well plates, where 10 μL of compound in 4% DMSO was already present. Following 6 hours incubation at 37° C., 5% CO2, the luciferase activity was determined by adding 15 μL of Steady Lite Plus substrate (Perkin Elmer) to each well and readout performed on a ViewLux ultraHTS microplate imager (Perkin Elmer). Dose response curves were generated from measurements performed in quadruplicates.

[2] = target: T2, human TLR7 (Homo sapiens, UniProt Q9NYK1); assay: TLR7 cellular reporter assay (HEK293, NFκB-luc); type: cell-based; conditions: HEK293 cells transfected with CMV-TLR7 and NFκB-luc, 6 hours incubation; lowest effective concentration
T2 construct: expressed in transfected cells; host or cells: HEK293 cells, transient transfection with CMV-TLR7 plasmid and NFκB-luc plasmid
T2 sequence (Q9NYK1 27-1049): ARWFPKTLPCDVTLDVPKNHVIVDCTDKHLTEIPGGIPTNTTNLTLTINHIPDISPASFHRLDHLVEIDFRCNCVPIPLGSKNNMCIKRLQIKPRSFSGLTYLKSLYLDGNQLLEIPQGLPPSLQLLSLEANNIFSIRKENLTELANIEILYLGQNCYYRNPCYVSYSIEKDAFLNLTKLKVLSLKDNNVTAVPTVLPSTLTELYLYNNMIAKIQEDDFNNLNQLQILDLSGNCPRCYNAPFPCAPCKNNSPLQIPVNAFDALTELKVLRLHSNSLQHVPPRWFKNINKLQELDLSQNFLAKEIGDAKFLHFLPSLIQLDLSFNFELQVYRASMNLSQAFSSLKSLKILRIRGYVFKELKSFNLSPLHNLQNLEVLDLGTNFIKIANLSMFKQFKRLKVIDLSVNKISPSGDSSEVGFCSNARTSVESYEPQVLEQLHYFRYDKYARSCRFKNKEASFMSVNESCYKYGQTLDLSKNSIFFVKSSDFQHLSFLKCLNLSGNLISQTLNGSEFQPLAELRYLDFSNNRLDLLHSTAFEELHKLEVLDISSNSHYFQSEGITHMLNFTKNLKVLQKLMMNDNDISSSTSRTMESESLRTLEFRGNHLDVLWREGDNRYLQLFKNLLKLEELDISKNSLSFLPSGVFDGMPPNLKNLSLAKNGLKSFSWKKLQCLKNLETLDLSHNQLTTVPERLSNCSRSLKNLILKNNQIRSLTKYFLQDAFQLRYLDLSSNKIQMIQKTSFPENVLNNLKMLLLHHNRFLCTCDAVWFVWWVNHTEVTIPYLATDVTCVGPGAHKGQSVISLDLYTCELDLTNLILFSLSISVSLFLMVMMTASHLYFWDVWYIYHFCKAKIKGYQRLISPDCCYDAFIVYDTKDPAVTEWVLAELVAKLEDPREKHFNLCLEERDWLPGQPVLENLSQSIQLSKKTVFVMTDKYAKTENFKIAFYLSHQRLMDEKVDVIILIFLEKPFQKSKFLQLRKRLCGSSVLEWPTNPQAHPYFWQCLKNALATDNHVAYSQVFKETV
Description: as §1, §2

[3] = system: interferon-stimulated responsive elements (ISRE); assay: Activation of ISRE promoter elements by conditioned media from PBMC (HEK-ISREluc); type: cell-based, human; conditions: conditioned media from PBMC transferred to HEK-ISREluc cells, 24 hours, lowest effective concentration; for minimal effective concentration: Homo sapiens, read-out: PBMC LEC
Description: The potential of compounds to induce IFN-I was also evaluated by measuring the activation of interferon-stimulated responsive elements (ISRE) by conditioned media from PBMC. The ISRE element of sequence […] (SEQ. ID NO:1) is highly responsive to the STAT1-STAT2-IRF 9 transcription factor, activated upon binding of IFN-I to their receptor IFNAR (Clontech, PT3372-5W). […] A HEK293 cell line stably transfected with pISRE-Luc (HEK-ISREluc) was established to profile of the conditioned PBMC cell culture media.
Briefly, PBMCs were prepared from buffy coats of at least two donors using a standard Ficoll centrifugation protocol. Isolated PBMCs were resuspended in RPMI medium supplemented with 10% human AB serum and 2×10^5 cells/well were dispensed into 384-well plates containing compounds (70 μL total volume). After overnight incubation, 10 μL of supernatant was transferred to 384-well plates containing 5×10^3 HEK-ISREluc cells/well in 30 μL (plated the day before). Following 24 hours of incubation, activation of the ISRE elements was measured by assaying luciferase activity using 40 μL/well Steady Lite Plus substrate (Perkin Elmer) and measured with ViewLux ultraHTS microplate imager (Perkin Elmer). The stimulating activity of each compound on the HEK-ISREluc cells was reported as LEC value, defined as the compound concentration applied to the PBMCs resulting in a luciferase activity at least two fold above the standard deviation of the assay. The LEC in turn indicates the degree of ISRE activation on transfer of a defined amount of PBMC culture medium. Recombinant interferon α-2a (Roferon-A) was used as a standard control compound.

Row | SMILES | TLR8 LEC [1] [µM] | TLR7 LEC [2] [µM] | minimal effective concentration [3] [µM] | PBMC LEC [3] [µM]
1 | CC(C)CNc1nc(N)nc2ccn(Cc3ccccc3)c12 [Compound 32] | >25 | 0.91 | 0.52 | 
2 | CCC[C@@H](CCO)Nc1nc(N)nc2ccn(Cc3ccncc3)c12 [Compound 39] | >25 | 0.17 | 0.009 | 
3 | CCCCNc1nc(N)nc2ccn(Cc3ccccc3F)c12 [Compound 43] | >25 | 0.11 | 0.17 | 
4 | CC(CNc1nc(N)nc2ccn(Cc3ccccc3)c12)C1CC1 (stereo not drawn) [Compound 44] | >25 | 1.51 | 2.45 | 
5 | Nc1nc(NCc2ccoc2)c2c(ccn2Cc2ccccc2)n1 [Compound 45] | >25 | 19.9 | 0.74 | 
6 | Cc1cc(CNc2nc(N)nc3ccn(Cc4ccccc4)c23)no1 [Compound 48] | >25 | 0.05 | 0.03 | 
7 | Cn1ccc(CNc2nc(N)nc3ccn(Cc4ccccc4)c23)n1 [Compound 49] | >25 | 22.43 | 2.34 | 
8 | CCCCNc1nc(N)nc2ccn(Cc3cc4ccccc4cn3)c12 [Compound 50] | >25 | 1.01 | 0.13 | 
9 | CC(C)CCNc1nc(N)nc2ccn(Cc3ccccc3)c12 [Compound 51] | >25 | 5.14 | 0.59 | 
10 | CCCCNc1nc(N)nc2ccn(CC3CCCCC3)c12 [Compound 52] | >25 | 0.12 | 0.09 | 
11 | CCCCNc1nc(N)nc2ccn(CC3CC3)c12 [Compound 53] | >25 | 0.38 | 0.07 | 
12 | CCCCNc1nc(N)nc2c(C)cn(Cc3ccccc3)c12 [Compound 54] | >25 | 1.68 | 0.9 | 

Further lines, with some results ahead:

Row | TLR8 LEC [1] [µM] | TLR7 LEC [2] [µM] | SMILES | minimal effective concentration [3] [µM] | PBMC LEC [3] [µM]
13 | >25 | 0.22 | CCC[C@H](CO)Nc1nc(N)nc2ccn(Cc3ccccc3)c12 [Compound 31] | 0.16 | 
14 | >25 | 0.03 | CCCC(C)Nc1nc(N)nc2ccn(Cc3ccccc3)c12 (stereo not drawn) [Compound 33] | 0.04 | 
15 | >25 | 0.91 | COCCNc1nc(N)nc2ccn(Cc3ccccc3)c12 [Compound 34] | 0.54 | 
16 | >25 | 1.49 | CCNc1nc(N)nc2ccn(Cc3ccccc3)c12 [Compound 35] | 0.7 | 
17 | >25 | 1.06 | Nc1nc(NCCCO)c2c(ccn2Cc2ccccc2)n1 [Compound 36] | 0.59 | 
18 | >25 | 0.005 | CCCC[C@@H](CCO)Nc1nc(N)nc2ccn(Cc3ccccc3)c12 [Compound 37] | 0.007 | 
19 | >25 | 0.54 | CC[C@H](C)[C@@H](CO)Nc1nc(N)nc2ccn(Cc3ccccc3)c12 [Compound 38] | 0.63 | 
20 | 24.61 | 0.12 | CCCC[C@@H](CCO)Nc1nc(N)nc2ccn(Cc3ccncc3)c12 [Compound 40] | 0.004 | 
21 | >25 | 0.09 | CCCCNc1nc(N)nc2ccn(Cc3ccc(OC)cc3)c12 [Compound 41] | 0.11 | 
22 | >25 | 0.28 | CCCCNc1nc(N)nc2ccn(Cc3ccc(F)cc3)c12 [Compound 42] | 0.16 | 
23 | >25 | 0.83 | CC1CC1CNc1nc(N)nc2ccn(Cc3ccccc3)c12 (stereo not drawn) [Compound 46] | 0.17 | 
24 | >25 | 17.5 | CC(C)=CCNc1nc(N)nc2ccn(Cc3ccccc3)c12 [Compound 47] | 1.79 | 
25 | 17.5 | 0.99 | CCCCNc1nc(N)nc2ccn(Cc3ncccn3)c12 [Compound 56] | 0.07 | 
26 | >25 | 0.24 | CCCCNc1nc(N)nc2c(C)cn(Cc3ccccc3)c12 [Compound 58] |  | 0.90
27 | >25 | 0.39 | Nc1nc(NCc2nccs2)c2c(ccn2Cc2ccccc2)n1 [Compound 60] | 0.33 | 
28 | >25 | 1.01 | Nc1nc(NCc2ccccn2)c2c(ccn2Cc2ccccc2)n1 [Compound 61] | 1.95 | 
